Measured values from ChEMBL document CHEMBL5257079, “Discovery of FXR/PPARγ dual partial agonist” (Bioorg Med Chem, 2023).
Calls of active or inactive are those of the source. The calls are words filed in the database; no cut-off is given here.

Assays:
[1] = target: T1, Vitamin D3 receptor (Homo sapiens) (UniProt P11473); assay: Activation of VDR (unknown origin) at 10 uM
T1 sequence (whole entry): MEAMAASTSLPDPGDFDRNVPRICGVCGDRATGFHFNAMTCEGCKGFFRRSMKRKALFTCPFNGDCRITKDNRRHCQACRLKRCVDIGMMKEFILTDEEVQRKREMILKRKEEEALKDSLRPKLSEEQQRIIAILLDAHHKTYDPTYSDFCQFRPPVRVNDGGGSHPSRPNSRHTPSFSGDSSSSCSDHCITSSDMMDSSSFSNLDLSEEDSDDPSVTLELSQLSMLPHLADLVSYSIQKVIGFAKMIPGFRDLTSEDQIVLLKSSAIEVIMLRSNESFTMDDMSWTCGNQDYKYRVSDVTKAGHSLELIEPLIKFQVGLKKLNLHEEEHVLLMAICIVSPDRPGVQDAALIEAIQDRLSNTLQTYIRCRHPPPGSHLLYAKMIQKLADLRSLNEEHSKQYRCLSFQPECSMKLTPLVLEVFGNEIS

[2] = target: T2, Bile acid receptor (Homo sapiens) (UniProt Q96RI1); assay: Partial agonist activity at human FXR expressed in Huh-7 cells in presence of CDCA by luciferase reporter gene assay relative to GW4064; format: cell-based
T2 sequence (whole entry): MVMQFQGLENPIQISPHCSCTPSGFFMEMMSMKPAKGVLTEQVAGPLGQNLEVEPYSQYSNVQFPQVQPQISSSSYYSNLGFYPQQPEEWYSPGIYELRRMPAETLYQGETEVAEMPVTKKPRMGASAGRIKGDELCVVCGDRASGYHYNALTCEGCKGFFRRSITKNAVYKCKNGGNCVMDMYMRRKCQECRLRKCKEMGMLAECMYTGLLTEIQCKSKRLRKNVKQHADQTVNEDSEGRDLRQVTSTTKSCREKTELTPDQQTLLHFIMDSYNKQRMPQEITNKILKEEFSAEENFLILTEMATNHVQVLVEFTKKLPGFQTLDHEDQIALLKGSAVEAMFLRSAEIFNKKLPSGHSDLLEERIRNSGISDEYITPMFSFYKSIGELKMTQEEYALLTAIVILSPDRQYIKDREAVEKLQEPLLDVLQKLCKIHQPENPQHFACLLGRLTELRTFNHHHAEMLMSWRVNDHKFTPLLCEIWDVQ

[3] = target: T3, Oxysterols receptor LXR-alpha (Homo sapiens) (UniProt Q13133); assay: Activation of LXR alpha (unknown origin) at 10 uM
T3 sequence (whole entry): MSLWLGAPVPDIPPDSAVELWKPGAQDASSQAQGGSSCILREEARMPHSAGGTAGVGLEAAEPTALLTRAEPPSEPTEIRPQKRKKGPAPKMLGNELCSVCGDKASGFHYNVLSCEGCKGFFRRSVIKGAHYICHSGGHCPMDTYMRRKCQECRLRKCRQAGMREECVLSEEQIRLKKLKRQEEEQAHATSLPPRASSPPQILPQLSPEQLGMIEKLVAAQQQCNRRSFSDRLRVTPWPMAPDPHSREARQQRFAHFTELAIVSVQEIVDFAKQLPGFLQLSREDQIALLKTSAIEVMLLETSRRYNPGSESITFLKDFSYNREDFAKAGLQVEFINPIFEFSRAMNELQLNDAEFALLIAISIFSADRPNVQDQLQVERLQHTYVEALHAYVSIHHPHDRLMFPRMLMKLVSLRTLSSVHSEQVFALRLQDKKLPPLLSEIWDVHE

[4] = target: T2, Bile acid receptor (Homo sapiens); assay: Partial agonist activity at FXR in human Huh-7 cells assessed as reduction in CDCA-induced BSEP gene expression at 10 uM by RT-PCR analysis; format: cell-based; details: filed as partial agonist
[5] = target: T4, Retinoic acid receptor RXR-alpha (Homo sapiens) (UniProt P19793); assay: Activation of RXRalpha (unknown origin) at 10 uM
T4 sequence (whole entry): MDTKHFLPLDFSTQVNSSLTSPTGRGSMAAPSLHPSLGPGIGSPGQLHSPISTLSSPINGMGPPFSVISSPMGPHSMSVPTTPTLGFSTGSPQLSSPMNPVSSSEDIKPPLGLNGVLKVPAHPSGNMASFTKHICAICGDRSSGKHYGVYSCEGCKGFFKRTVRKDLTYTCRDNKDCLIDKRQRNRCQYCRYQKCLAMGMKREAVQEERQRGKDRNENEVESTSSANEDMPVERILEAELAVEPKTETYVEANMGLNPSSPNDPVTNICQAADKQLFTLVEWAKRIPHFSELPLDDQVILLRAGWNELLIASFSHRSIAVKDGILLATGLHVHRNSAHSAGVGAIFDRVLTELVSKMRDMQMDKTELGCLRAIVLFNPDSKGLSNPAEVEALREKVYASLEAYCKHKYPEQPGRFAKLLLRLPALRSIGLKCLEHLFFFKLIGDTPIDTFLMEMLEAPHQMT

[6] = target: T2, Bile acid receptor (Homo sapiens); assay: Partial agonist activity at FXR in human Huh-7 cells assessed as reduction in CDCA-induced FAS gene expression at 10 uM by RT-PCR analysis; format: cell-based; details: filed as partial agonist
[7] = target: T2, Bile acid receptor (Homo sapiens); assay: Partial agonist activity at FXR in human Huh-7 cells assessed as reduction in CDCA-induced SHP gene expression at 10 uM by RT-PCR analysis; format: cell-based; details: filed as partial agonist
[8] = Metabolic stability in mouse liver microsomes assessed as parent compound remaining after 30 mins; format: ADME, Microsome; details: read-out: Stability
Bile acid receptor = target: T5, Bile acid receptor (Homo sapiens, UniProt Q96RI1); assay: Partial agonist activity at FXR-LBD-GST (unknown origin) by TR-FRET assay; details: read-out: EC50
T5 sequence (Q96RI1 whole entry): T2 sequence (whole entry)

[9] = target: T6, Retinoic acid receptor alpha (Homo sapiens) (UniProt P10276); assay: Activation of RARalpha (unknown origin) at 10 uM
T6 sequence (whole entry): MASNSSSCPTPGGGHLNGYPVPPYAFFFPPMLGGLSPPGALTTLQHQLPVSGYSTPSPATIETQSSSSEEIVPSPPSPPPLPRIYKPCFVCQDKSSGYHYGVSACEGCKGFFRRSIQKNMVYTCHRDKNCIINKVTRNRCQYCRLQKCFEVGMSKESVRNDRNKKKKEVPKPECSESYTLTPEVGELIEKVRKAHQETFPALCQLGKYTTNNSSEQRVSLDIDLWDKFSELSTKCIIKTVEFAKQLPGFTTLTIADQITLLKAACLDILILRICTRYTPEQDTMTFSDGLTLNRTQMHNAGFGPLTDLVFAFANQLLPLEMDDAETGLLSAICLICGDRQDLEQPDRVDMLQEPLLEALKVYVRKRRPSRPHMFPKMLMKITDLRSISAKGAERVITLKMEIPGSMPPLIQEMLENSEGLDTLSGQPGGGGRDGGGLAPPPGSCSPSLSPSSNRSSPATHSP

Activity [1]: inactive
Activity [2]: 35.6%
Activity [3]: inactive
Activity [5]: inactive
Activity [6]: Active
Activity [7]: Active
remaining at 0.5 h [8]: 69.5%
EC50 (Bile acid receptor): 250 nM
Activity [9]: inactive
Structure (SMILES): CC(C)(C)c1ccc(-n2cnc3c(NC(=O)Cc4ccc(C(=O)O)cc4)cccc32)cc1
Activity [4]: Active
